{
  "source": "paper PMC2664101",
  "about": "(Journal of medicinal chemistry, 2009)",
  "key": {"[1]": {"system": "hypoxia-ischemia induced cerebral palsy", "details": "cited from earlier work; for fetal brain NOS activity in vivo / cardiovascular effects / distribution to fetal brain / eNOS regulated blood pressure / toxicity: rabbit; for hypoxia-ischemia induced deaths / number of newborn kits exhibiting symptoms of cerebral palsy: rabbit model for cerebral palsy"}, "rat nNOS": {"target": "rat nNOS (Rattus norvegicus, UniProt P29476)", "details": "comparing 27 with 16"}, "[2]": {"details": "following maternal administration"}},
  "note": "Like-named read-outs stand apart in the source and are kept apart here.",
  "data": [
    {"compound": "Cc1cc(N)nc(C[C@H]2CNC[C@H]2NCCNCCc2cccc(F)c2)c1", "note": "[compound 26]", "values": [
      {"measurement": "fetal brain NOS activity in vivo", "setting": "[1]; [2]", "value": "inhibit fetal brain NOS activity in vivo"},
      {"measurement": "hypoxia-ischemia induced deaths", "setting": "[1]", "value": "prevent hypoxia-ischemia induced deaths"},
      {"measurement": "number of newborn kits exhibiting symptoms of cerebral palsy", "setting": "[1]", "value": "reduce the number of newborn kits exhibiting symptoms of cerebral palsy"},
      {"measurement": "cardiovascular effects", "setting": "[1]; in vivo", "value": "without cardiovascular effects"},
      {"measurement": "distribution to fetal brain", "setting": "[1]; in vivo", "value": "distribute to fetal brain"},
      {"measurement": "eNOS regulated blood pressure", "setting": "[1]; in vivo", "value": "without affecting the eNOS regulated blood pressure"},
      {"measurement": "toxicity", "setting": "[1]; in vivo", "value": "non-toxic"}
    ]},
    {"compound": "Cc1cc(N)nc(C[C@H]2CNC[C@H]2NCCNCc2ccc(Cl)cc2)c1.Cl", "note": "[compound 16]", "values": [
      {"measurement": "fetal brain NOS activity in vivo", "setting": "[1]; [2]", "value": "inhibit fetal brain NOS activity in vivo"},
      {"measurement": "toxicity", "setting": "[1]; [2]", "value": "non-toxic"},
      {"measurement": "hypoxia-ischemia induced deaths", "setting": "[1]", "value": "prevent hypoxia-ischemia induced deaths"},
      {"measurement": "number of newborn kits exhibiting symptoms of cerebral palsy", "setting": "[1]", "value": "reduce the number of newborn kits exhibiting symptoms of cerebral palsy"},
      {"measurement": "cardiovascular effects", "setting": "[1]; in vivo", "value": "without cardiovascular effects"},
      {"measurement": "distribution to fetal brain", "setting": "[1]; in vivo", "value": "distribute to fetal brain"},
      {"measurement": "eNOS regulated blood pressure", "setting": "[1]; in vivo", "value": "without affecting the eNOS regulated blood pressure"}
    ]},
    {"compound": "Cc1cc(C[C@H]2CNC[C@H]2NCCNCc2ccc(Cl)cc2)cc(N)n1.Cl", "note": "(racemic) [compound 27, N^1-{(±)-4′-[(2”-amino-6”-methylpyridin-4”-yl)methyl]pyrrolidin-3′-yl}-N^2-(4′-chlorobenzyl)ethane-1,2-diamine tetrahydrochloride]", "values": [
      {"measurement": "drop in nNOS inhibitory potency", "setting": "rat nNOS", "value": "more than 200 fold"}
    ]}
  ]
}
